Test results taken from ChEMBL document CHEMBL1135870, “4-Aminoquinolines as a novel class of NR1/2B subtype selective NMDA receptor antagonists” (Bioorg Med Chem Lett, 2002).

Tests used:
Glutamate NMDA receptor = test: Binding affinity against N-methyl-D-aspartate glutamate receptor using [3H]25-6981 as radioligand.; assay type: protein-complex assay
[1] = The ionization constant for the compound was tested using a potentiometric method.; assay type: physicochemical
Mus musculus = test: In vivo effective dose required for 50% inhibition of sound induced seizures upon intraperitoneal dose, 30 min before testing in DBA/2 mice.; assay type: functional; settings: ip

| SMILES | Ki (Glutamate NMDA receptor) [nM] | pKa [1] | ED50 (Mus musculus) [mg/kg] |
| --- | --- | --- | --- |
| Cc1ccc(-c2cc(NCC(O)CO)c3ccccc3n2)cc1Cl (stereo not given) | 17 | – | – |
| OCC(O)CNc1ccnc2ccccc12 (stereo not given) | > 35000 | – | – |
| CCCNc1cc(-c2ccccc2)nc2ccccc12 | 4900 | – | – |
| Cc1ccc(-c2cc(NC[C@H](C)O)c3ccccc3n2)cc1Cl | 10 | – | 12 |
| Cc1ccccc1-c1cc(NCC(O)CO)c2ccccc2n1 (stereo not given) | 3700 | – | – |
| Nc1cc(-c2ccccc2)nc2ccccc12 | 413 | 8.5 | – |
| OCCNc1cc(N2CCc3ccccc3C2)nc2ccccc12 | 3.5 | – | < 12 |
| Cc1cc(NCC(O)CO)c2ccccc2n1 (stereo not given) | > 40000 | – | – |
| CC(O)CNc1cc(-c2ccccc2)nc2ccccc12 (stereo not given) | 260 | – | – |
| C[C@@H](O)CNc1cc(-c2ccccc2)nc2ccccc12 | 450 | – | – |
| COc1ccc(-c2cc(NCC(O)CO)c3ccccc3n2)cc1 (stereo not given) | 19 | – | – |
| CC(=O)CNc1cc(-c2ccccc2)nc2ccccc12 | 7900 | – | – |
| COc1ccc(-c2cc(NC[C@H](C)O)c3ccccc3n2)cc1C | 10 | – | 17 |
| OCCNc1cc(-c2ccccc2)nc2ccccc12 | 110 | – | – |
| COc1ccc(-c2cc(NCC(O)CO)c3ccccc3n2)cc1C (stereo not given) | 26 | – | – |
| OCC(O)CNc1cc(C2CCc3ccccc3C2)nc2ccccc12 (stereo in doubt; 19) | 100 | – | – |
| c1ccc(-c2ccc3ccccc3n2)cc1 [2-PHENYLQUINOLINE] | > 35000 | 5.2 | – |

More lines, main results first:

| Ki (Glutamate NMDA receptor) [nM] | pKa [1] | SMILES | ED50 (Mus musculus) [mg/kg] |
| --- | --- | --- | --- |
| 33000 | – | CCCCc1cc(NCC(O)CO)c2ccccc2n1 (stereo not given) | – |
| 22 | – | OCC(O)CNc1cc(-c2ccc3c(c2)CCCC3)nc2ccccc12 (stereo not given) | – |
| 500 | – | CC(C)Oc1ccc(-c2cc(NCC(O)CO)c3ccccc3n2)cc1 (stereo not given) | – |
| 260 | 8.4 | OCC(O)CNc1cc(-c2ccccc2)nc2ccccc12 (stereo not given) | – |
| 75 | – | C[C@H](O)CNc1cc(-c2ccccc2)nc2ccccc12 | – |
| 7500 | – | COCCNc1cc(-c2ccccc2)nc2ccccc12 | – |
| 15 | – | COc1ccc(-c2cc(NCCO)c3ccccc3n2)cc1 | 25 |
| 100 | – | OCC(O)CNc1cc(-c2ccc(Cl)cc2)nc2ccccc12 (stereo not given) | – |
| > 4000 | – | OCC(O)CNc1cc(-c2ccc(O)cc2)nc2ccccc12 (stereo not given) | – |
| 23 | – | Cc1ccc(-c2cc(NCC(O)CO)c3ccccc3n2)cc1 (stereo not given) | – |
| 11 | – | OCC(O)CNc1cc(C2CCc3ccccc3C2)nc2ccccc12 (stereo in doubt; 20) | – |
